From patent US9156831B2, “Chemical compounds” (ASTRAZENECA AB, priority 2013, dated 2015)

Experiments:
Experiment in all cases: Cell proliferation assay (MTS)
[1] = tested on: CAMA1; format: cell-based, human
Protocol: (§1) The sensitivity of a panel of human cancer cell lines to the effects of compounds was determined in a standard proliferation assay. Cell lines were sourced through the AstraZeneca Cell Bank.
(§2) Cells were plated in 96 well plates at densities of 1000-6000 cells per well in RPMI media containing 10% FBS. After incubation at 37° C. for 16 hours, various concentrations of compound were added to the assay plates. After incubation for an additional 72 h, the viable cells were determined by the addition of MTS reagent (Promega #3582) to each well for 2 h. MTS is a tetrazolium salt that is bioreduced by metabolically active cells in the presence of an electron coupling reagent to formazan. The formazan product was then quantitated by absorbance at 490 nm, as an indicator of the relative number of live cells. In order to determine the GI50 (concentration at which growth of cells was inhibited by 50%) the relative number of cells present at the time of drug addition was determined by comparison with the MTS readout before the drug was added, and this value was subtracted from the 72 hr value of untreated cells as a measure of cell growth during the assay.

[2] = tested on: CAPAN1; format: cell-based, human
Protocol: (§3) The sensitivity of a panel of human cancer cell lines to the effects of compounds was determined in a standard proliferation assay.
as §2

[3] = tested on: HARA; format: cell-based, human
Protocol: as §3, §2

[4] = tested on: RKO; format: cell-based, human
Protocol: as §3, §2

[5] = tested on: PANC1005; format: cell-based, human
Protocol: as §3, §2

[6] = tested on: HCC1395; format: cell-based, human
Protocol: as §3
(§4) Cells were plated in 96 well plates at densities of 1000-6000 cells per well in RPMI media containing 10% FBS. After incubation at 37° C. for 16 hours, various concentrations of compound were added to the assay plates. After incubation for an additional 72 h, the viable cells were determined by the addition of MTS reagent (Promega #3582) to each well for 2 h. […] The formazan product was then quantitated by absorbance at 490 nm, as an indicator of the relative number of live cells. In order to determine the GI50 (concentration at which growth of cells was inhibited by 50%) the relative number of cells present at the time of drug addition was determined by comparison with the MTS readout before the drug was added, and this value was subtracted from the 72 hr value of untreated cells as a measure of cell growth during the assay.

[7] = tested on: HUH7; format: cell-based, human
Protocol: as §3, §2

[8] = tested on: HPAFII; format: cell-based, human
Protocol: as §3, §2

[9] = tested on: H1299; format: cell-based, human
Protocol: as §3, §2

[10] = tested on: HPAC; format: cell-based, human
Protocol: as §3, §2

[11] = tested on: LNCAPCLONEFGC; format: cell-based, human
Protocol: as §1, §2

[12] = tested on: SNU886; format: cell-based, human
Protocol: as §3, §4

[13] = tested on: OCILY19; format: cell-based, human
Protocol: as §3, §2

[14] = tested on: SW48; format: cell-based, human
Protocol: as §1, §2

[15] = tested on: H460; format: cell-based, human
Protocol: as §3, §2

[16] = tested on: OE33; format: cell-based, human
Protocol: as §3, §4

[17] = tested on: HGC27; format: cell-based, human
Protocol: as §3, §2

[18] = tested on: SKBR3; format: cell-based, human
Protocol: as §3, §2

[19] = tested on: RPM18226; format: cell-based, human
Protocol: as §3, §4

[20] = tested on: H1869; format: cell-based, human
Protocol: as §3, §2

[21] = tested on: HEL9217; format: cell-based, human
Protocol: as §1, §2

[22] = tested on: AMO1; format: cell-based, human
Protocol: as §1, §2

[23] = tested on: MKN1; format: cell-based, human
Protocol: as §3, §2

[24] = tested on: HCC1187; format: cell-based, human
Protocol: as §1, §2

[25] = tested on: T47D; format: cell-based, human
Protocol: as §3, §2

[26] = tested on: PANC1; format: cell-based, human
Protocol: as §3, §4

[27] = tested on: MV411; format: cell-based, human
Protocol: as §3, §2

[28] = tested on: BT20; format: cell-based, human
Protocol: as §1, §2

[29] = tested on: HUPT4; format: cell-based, human
Protocol: as §3, §2

[30] = tested on: 977; format: cell-based, human
Protocol: as §3, §2

[31] = tested on: H520
Protocol: as §3, §2

[32] = tested on: EBC1; format: cell-based, human
Protocol: as §3, §4

[33] = tested on: KU1919; format: cell-based, human
Protocol: as §3, §2

[34] = tested on: PNT1A; format: cell-based, human
Protocol: as §3, §2

[35] = tested on: BEL7405; format: cell-based, human
Protocol: as §1, §2

[36] = tested on: SNU398; format: cell-based, human
Protocol: as §3, §4

[37] = tested on: H1437; format: cell-based, human
Protocol: as §3, §2

[38] = tested on: BXPC3; format: cell-based, human
Protocol: as §3, §4

[39] = tested on: SW900; format: cell-based, human
Protocol: as §1, §2

[40] = tested on: HCC1419; format: cell-based, human
Protocol: as §3, §2

[41] = tested on: SCABER; format: cell-based, human
Protocol: as §1, §2

[42] = tested on: ARH77; format: cell-based, human
Protocol: as §3, §2

[43] = tested on: H23; format: cell-based, human
Protocol: as §1, §2

[44] = Homo sapiens, Colon, PIK3CA MUT
[45] = Homo sapiens, Pancreas, PIK3CA WT
[46] = Homo sapiens, Breast, PIK3CA WT
[47] = Homo sapiens, Blood/lymph, PIK3CA WT
[48] = Homo sapiens, Bladder, PIK3CA WT

CCn1nc(C2CCN(C(=O)CCO)CC2)nc1-c1cnc(N)c(-c2nnc(C(C)(C)C)o2)n1 [Example 3, 1-(4-(5-(5-amino-6-(5-tert-butyl-1,3,4-oxadiazol-2-yl)pyrazin-2-yl)-1-ethyl-1H-1,2,4-triazol-3-yl)piperidin-1-yl)-3-hydroxypropan-1-one]
Category [1]: Resistant (resistant (GI50>1.0 μM)) | GI50 ([1]; Homo sapiens, CAMA-1, Breast, PIK3CA WT): 15.5 µM | Category [2]: Resistant (resistant (GI50>1.0 μM)) | GI50 ([2]; Homo sapiens, CAPAN-1, Pancreas, PIK3CA WT): 30 µM | Category [3]: Resistant (resistant (GI50>1.0 μM)) | GI50 ([3]; Homo sapiens, Lung, PIK3CA WT): 1.91 µM | Category [4]: Resistant (resistant (GI50>1.0 μM)) | GI50 [4, 44]: 4.32 µM | Category [5]: Resistant (resistant (GI50>1.0 μM)) | GI50 [5, 45]: 2.61 µM | Category [6]: Resistant (resistant (GI50>1.0 μM)) | GI50 [6, 46]: 21.8 µM | Category [7]: Resistant (resistant (GI50>1.0 μM)) | GI50 ([7]; Homo sapiens, Huh-7, Liver, PIK3CA WT): 16 µM | Category [8]: Resistant (resistant (GI50>1.0 μM)) | GI50 ([8]; Homo sapiens, HPAF-II, Pancreas, PIK3CA WT): 2.63 µM | Category [9]: Resistant (resistant (GI50>1.0 μM)) | GI50 ([9]; Homo sapiens, NCI-H1299, Lung, PIK3CA WT): 30 µM | Category [10]: Resistant (resistant (GI50>1.0 μM)) | GI50 [10, 45]: 2.16 µM | Category [11]: Resistant (resistant (GI50>1.0 μM)) | GI50 ([11]; Homo sapiens, LNCaP-Clone-FGC, Prostate, PIK3CA WT): 3.01 µM | Category [12]: Resistant (resistant (GI50>1.0 μM)) | GI50 ([12]; Homo sapiens, SNU-886, Liver, PIK3CA WT): 15.6 µM | Category [13]: Resistant (resistant (GI50>1.0 μM)) | GI50 ([13]; Homo sapiens, OCI-LY19, Blood/lymph, PIK3CA WT): 30 µM | Category [14]: Sensitive (sensitive (GI50<=1.0 μM)) | GI50 [14, 44]: 0.513 µM | Category [15]: Resistant (resistant (GI50>1.0 μM)) | GI50 ([15]; Homo sapiens, NCI-H460, Lung, PIK3CA MUT): 30 µM | Category [16]: Resistant (resistant (GI50>1.0 μM)) | GI50 ([16]; Homo sapiens, Esophagus, PIK3CA WT): 9.86 µM | Category [17]: Resistant (resistant (GI50>1.0 μM)) | GI50 ([17]; Homo sapiens, HGC-27, Stomach, PIK3CA MUT): 1.5 µM | Category [18]: Resistant (resistant (GI50>1.0 μM)) | GI50 ([18]; Homo sapiens, SK-BR-3, Breast, PIK3CA WT): 1.59 µM | Category [19]: Resistant (resistant (GI50>1.0 μM)) | GI50 [19, 47]: 30 µM | Category [20]: Resistant (resistant (GI50>1.0 μM)) | GI50 ([20]; Homo sapiens, Lung, PIK3CA WT): 6.04 µM | Category [21]: Resistant (resistant (GI50>1.0 μM)) | GI50 ([21]; Homo sapiens, HEL 92.1.7, Blood/lymph, PIK3CA INCON): 30 µM | Category [22]: Resistant (resistant (GI50>1.0 μM)) | GI50 [22, 47]: 26.9 µM | Category [23]: Resistant (resistant (GI50>1.0 μM)) | GI50 ([23]; Homo sapiens, MKN-1, Stomach, PIK3CA MUT): 1.58 µM | Category [24]: Sensitive (sensitive (GI50<=1.0 μM)) | GI50 [24, 46]: 0.509 µM | Category [25]: Sensitive (sensitive (GI50<=1.0 μM)) | GI50 ([25]; Homo sapiens, Breast, PIK3CA MUT): 0.198 µM | Category [26]: Resistant (resistant (GI50>1.0 μM)) | GI50 ([26]; Homo sapiens, PANC-1, Pancreas, PIK3CA WT): 5.34 µM | Category [27]: Sensitive (sensitive (GI50<=1.0 μM)) | GI50 ([27]; Homo sapiens, MV4-11, Blood/lymph, PIK3CA WT): 0.382 µM | Category [28]: Resistant (resistant (GI50>1.0 μM)) | GI50 ([28]; Homo sapiens, BT-20, Breast, PIK3CA MUT): 2.36 µM | Category [29]: Sensitive (sensitive (GI50<=1.0 μM)) | GI50 ([29]; Homo sapiens, HuP-T4, Pancreas, PIK3CA WT): 0.641 µM | Category [30]: Resistant (resistant (GI50>1.0 μM)) | GI50 [30, 48]: 4.42 µM | Category ([31]; H520): Resistant (resistant (GI50>1.0 μM)) | GI50 ([31]; Homo sapiens, NCI-H520): 6.62 µM | Category [32]: Resistant (resistant (GI50>1.0 μM)) | GI50 ([32]; Homo sapiens, EBC-1, Lung, PIK3CA WT): 8.57 µM | Category [33]: Resistant (resistant (GI50>1.0 μM)) | GI50 ([33]; Homo sapiens, KU-19-19, Bladder, PIK3CA WT): 30 µM | Category [34]: Resistant (resistant (GI50>1.0 μM)) | GI50 ([34]; Homo sapiens, Prostate, PIK3CA WT): 2.17 µM | Category [35]: Resistant (resistant (GI50>1.0 μM)) | GI50 ([35]; Homo sapiens, Liver, PIK3CA WT): 8.11 µM | Category [36]: Resistant (resistant (GI50>1.0 μM)) | GI50 ([36]; Homo sapiens, SNU-398, Liver, PIK3CA WT): 30 µM | Category [37]: Resistant (resistant (GI50>1.0 μM)) | GI50 ([37]; Homo sapiens, NCI-H1437, Lung, PIK3CA WT): 30 µM | Category [38]: Resistant (resistant (GI50>1.0 μM)) | GI50 ([38]; Homo sapiens, BXPC-3, Pancreas, PIK3CA WT): 14.1 µM | Category [39]: Resistant (resistant (GI50>1.0 μM)) | GI50 ([39]; Homo sapiens, Lung, PIK3CA WT): 30 µM | Category [40]: Sensitive (sensitive (GI50<=1.0 μM)) | GI50 [40, 46]: 0.78 µM | Category [41]: Resistant (resistant (GI50>1.0 μM)) | GI50 [41, 48]: 12.4 µM | Category [42]: Resistant (resistant (GI50>1.0 μM)) | GI50 ([42]; Homo sapiens, ARH-77, Blood/lymph, PIK3CA WT): 30 µM | Category [43]: Resistant (resistant (GI50>1.0 μM)) | GI50 ([43]; Homo sapiens, NCI-H23, Lung, PIK3CA WT): 12.3 µM
